We go through one compound from ChEMBL document CHEMBL6182905, “Fluorinated sulfonamide-flavonoid derivatives as novel Keap1-Nrf2 inhibitors: Potent induction of cytoprotective gene HO-1 in vivo” (Eur J Med Chem, 2025).

Data set [1] has as its system Mus musculus. The data set can be described thus: Anti-inflammatory activity in APAP-induced Nrf2 knockout male C57BL/6 mouse model of acute liver injury assessed as increase in F4/80 positive cells in liver at 25 mg/kg, ip preadministered with compound followed by APAP induction and measured after 12 hrs by staining based analysis. It counts as functional, organism-based.

For data set [2], the system named is Mus musculus. The data set can be described thus: Anti-inflammatory activity against APAP-induced male C57BL/6 mouse model of acute liver injury assessed as upregulation of GCLM mRNA level in liver administered intraperitoneally and measured after 12 hrs by RT-qPCR analysis. It counts as functional, organism-based. The following applies: dose 12.5-25 mg/kg, route ip. (In qPCR the cycle at which signal appears reflects the starting amount.)

Data set [3] relates to Mus musculus. The experiment in a line: Anti-inflammatory activity in APAP-induced C57BL/6 mouse model of acute liver injury assessed as reduction in IL-6 mRNA level in liver at 12.5 to 25 mg/kg, ip measured after 12 hrs by ELISA. It counts as functional, organism-based. Conditions: dose 12.5-25 mg/kg.
The target in data set [4] is T1, Nuclear factor erythroid 2-related factor 2 (Mus musculus) (UniProt Q60795).
T1 sequence (whole entry): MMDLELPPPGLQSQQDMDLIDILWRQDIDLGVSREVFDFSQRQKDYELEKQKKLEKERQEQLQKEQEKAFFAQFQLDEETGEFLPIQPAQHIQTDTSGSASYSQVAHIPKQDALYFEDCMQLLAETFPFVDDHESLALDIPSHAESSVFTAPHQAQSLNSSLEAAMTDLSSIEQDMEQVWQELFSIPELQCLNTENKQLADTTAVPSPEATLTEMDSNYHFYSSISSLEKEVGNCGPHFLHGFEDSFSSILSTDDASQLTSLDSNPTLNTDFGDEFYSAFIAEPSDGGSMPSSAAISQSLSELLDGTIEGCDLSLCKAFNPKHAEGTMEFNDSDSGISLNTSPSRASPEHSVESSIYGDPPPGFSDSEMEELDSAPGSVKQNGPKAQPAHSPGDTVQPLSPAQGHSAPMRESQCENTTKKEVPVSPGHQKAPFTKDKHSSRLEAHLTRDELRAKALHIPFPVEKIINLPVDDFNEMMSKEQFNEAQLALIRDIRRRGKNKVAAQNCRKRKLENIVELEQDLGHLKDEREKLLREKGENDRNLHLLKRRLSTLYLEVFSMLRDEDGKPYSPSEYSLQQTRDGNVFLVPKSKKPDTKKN
The data set can be described thus: Activation of Nrf2 in LPS-stimulated mouse AML12 cells assessed as upregulation of Akr1c1 mRNA expression by measuring fold change at 10 uM incubated for 16 hrs relative to sulforaphane. The class given is cell-based. Conditions: filed as activator.

In data set [5] the test system is Mus musculus. The experiment in a line: Anti-inflammatory activity in APAP-induced C57BL/6 mouse model of acute liver injury assessed as reduction in neutrophil invasion in liver at 12.5 to 25 mg/kg, ip measured after 12 hrs by immunohistochemical staining based analysis. The class given is functional, organism-based. Conditions: dose 12.5-25 mg/kg.
The subject of data set [6] is Mus musculus. The experiment in a line: Hepatoprotective activity in APAP-induced male C57BL/6 mouse model of acute liver injury assessed as reduction in AST level in liver at 12.5 to 25 mg/kg, ip measured after 12 hrs. It counts as functional, organism-based. The following applies: dose 12.5-25 mg/kg.
Data set [7] can be described thus: Toxicity in C57BL/6J mouse assessed as histopathological change in splenic tissue at 25 mg/kg, ip by H and E staining based analysis. Conditions: in vivo. The class given is organism-based.
The target of data set [8] is T1, Nuclear factor erythroid 2-related factor 2 (Mus musculus). The experiment in a line: Activation of Nrf2 in LPS-stimulated mouse AML12 cells assessed as upregulation of Nrf2 protein level incubated for 16 hrs by Western blot analysis. It counts as cell-based. Conditions: filed as activator, dose 0.5-10 µM. A general note: Immunoblotting shows a protein as a band on a membrane.

The subject of data set [9] is Mus musculus. The data set can be described thus: Hepatoprotective activity in APAP-induced Nrf2 knockout male C57BL/6 mouse model of acute liver injury assessed as reduction in liver damage at 25 mg/kg, ip preadministered with compound followed by APAP induction and measured after 12 hrs by H and E staining based analysis. The class given is functional, organism-based.

Data set [10] concerns Mus musculus. The experiment in a line: Hepatoprotective activity in APAP-induced Nrf2 knockout male C57BL/6 mouse model of acute liver injury assessed as effect on ALT level in liver at 25 mg/kg, ip preadministered with compound followed by APAP induction and measured after 12 hrs. The class given is functional, organism-based.
Data set [11] is described as follows: Drug concentration in plasma of APAP-induced acute liver injury male C57BL/6 mouse model at 25 mg/kg, ip pre-administered with compound for 1 hr followed by APAP induction and measured after 12 hrs by Mass spectrometric analysis. It counts as ADME, organism-based.
Data set [12] is described as follows: AUC (0 to t) last in Sprague-Dawley rat at 1 mg/kg, iv. The class given is ADME, organism-based. Conditions: in vivo.
Data set [13] can be described thus: Toxicity in C57BL/6J mouse assessed as histopathological change in hepatic tissue at 25 mg/kg, ip by H and E staining based analysis. It counts as organism-based. The following applies: in vivo.
The nature of data set [14]: Cmax in Sprague-Dawley rat at 1 mg/kg, iv. The class given is ADME, organism-based. Conditions: in vivo.
For data set [15], the system named is Mus musculus. The experiment in a line: Anti-inflammatory activity in APAP-induced C57BL/6 mouse model of acute liver injury assessed as reduction in TNFalpha mRNA level in liver at 12.5 to 25 mg/kg, ip measured after 12 hrs by ELISA. The class given is functional, organism-based. The following applies: dose 12.5-25 mg/kg.
Data set [16] concerns the target T1, Nuclear factor erythroid 2-related factor 2 (Mus musculus). The experiment in a line: Activation of Nrf2 in LPS-stimulated mouse AML12 cells assessed as upregulation of HO-1 mRNA expression incubated for 16 hrs by RT-qPCR analysis. It counts as cell-based. Conditions: filed as activator, dose 0.5-10 µM.
Data set [17] shares this target. The data set can be described thus: Activation of Nrf2 in LPS-stimulated mouse AML12 cells assessed as upregulation of GCLM mRNA expression incubated for 16 hrs by RT-qPCR analysis. The class given is cell-based. The following applies: filed as activator, dose 0.5-10 µM.
The nature of data set [18]: Drug concentration in liver of APAP-induced acute liver injury male C57BL/6 mouse model at 12.5 mg/kg, ip pre-administered with compound for 1 hr followed by APAP induction and measured after 12 hrs by Mass spectrometric analysis. It counts as ADME, organism-based. Conditions: read-out: Ct.
For data set [19], the target named is T1, Nuclear factor erythroid 2-related factor 2 (Mus musculus). The experiment in a line: Activation of Nrf2 in LPS-stimulated mouse AML12 cells assessed as upregulation of GCLM mRNA expression by measuring fold change at 10 uM incubated for 16 hrs relative to sulforaphane. Conditions: filed as activator. It counts as cell-based.
The subject of data set [20] is Mus musculus. The data set can be described thus: Anti-inflammatory activity in APAP-induced Nrf2 knockout male C57BL/6 mouse model of acute liver injury assessed as increase in MPO positive cells in liver at 25 mg/kg, ip preadministered with compound followed by APAP induction and measured after 12 hrs by staining based analysis. The class given is functional, organism-based.

Data set [21] is described as follows: Toxicity in C57BL/6J mouse assessed as histopathological change in cardiovascular tissue at 25 mg/kg, ip by H and E staining based analysis. It counts as organism-based. The following applies: in vivo.
Data set [22] is described as follows: Elimination half life in Sprague-Dawley rat at 1 mg/kg, iv. It counts as ADME, organism-based. Conditions: in vivo, read-out: beta t1/2 (converted).

Structures are written as SMILES. Calls of active or inactive are those of the source. The calls are words filed in the database; no cut-off is given here.

In the case of `COc1ccc(-c2cc(=O)c3ccc(NS(=O)(=O)c4ccc(F)cc4)cc3o2)cc1`, the outcome in the data set on Mus musculus [1], in the data set with Mus musculus [9] and with Mus musculus [20] was inactive. Further, the Activity result was “Dose-dependent-effect” in the data set on Mus musculus [2]; “Non-toxic” in data set [7]; “Dose-dependent-effect” in [8]; “No effect” in the data set on Mus musculus [10]; “Non-toxic” in data set [13]; “Dose-dependent-effect” in data set [16]. Further, the Activity result was “Dose-dependent-effect” in data set [17] and “Non-toxic” in data set [21]. For the same compound, the outcome in the data set on Mus musculus [3], with Mus musculus [5], with Mus musculus [6] and in the data set on Mus musculus [15] was Active. Besides, the fold change (FC) in data set [4] worked out at 1.8; in [19], 2.3. Moreover, the concentration at 13 h in data set [11] amounted to 155 ng/mL; in data set [18], 175 ng/g. This compound had an AUCt in [12] of 3869 ng·h/mL. The Cmax in data set [14] was 1050 ng/mL. Moreover, the half-life in data set [22] is 5.45 h.

Usually Cmax stands for the highest concentration seen after dosing.
